Measurements published in PubChem BioAssay (NCI).
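In this assay, cells in 96-well plates receive the compound at five concentrations for 48 hours. Endpoints are linearly interpolated between the surrounding concentrations. The concentration for 50% growth inhibition is given as GI50. TGI denotes the concentration required for complete inhibition of growth.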

Experiments:
Assay in all cases: NCI anticancer screen, dose series, 48 h
LOX IMVI melanoma = test system: LOX IMVI melanoma
LXFL 529 NSCLC = test system: LXFL 529 NSCLC
M19-MEL melanoma = test system: M19-MEL melanoma
OVCAR-4 ovarian = test system: OVCAR-4 ovarian
SW-620 colon = test system: SW-620 colon
SNB-78 CNS = test system: SNB-78 CNS
HS 578T breast = test system: HS 578T breast
MCF7 breast = test system: MCF7 breast
MDA-MB-231 breast = test system: MDA-MB-231 breast
T-47D breast = test system: T-47D breast

Compound	GI50 (LOX IMVI melanoma) [µM]	TGI (LOX IMVI melanoma) [µM]	GI50 (LXFL 529 NSCLC) [µM]	TGI (LXFL 529 NSCLC) [µM]	GI50 (M19-MEL melanoma) [µM]	TGI (M19-MEL melanoma) [µM]	GI50 (OVCAR-4 ovarian) [µM]	TGI (OVCAR-4 ovarian) [µM]	GI50 (SW-620 colon) [µM]	TGI (SW-620 colon) [µM]	TGI (SNB-78 CNS) [µM]	GI50 (HS 578T breast) [µM]	TGI (HS 578T breast) [µM]	GI50 (MCF7 breast) [µM]	TGI (MCF7 breast) [µM]	GI50 (MDA-MB-231 breast) [µM]	TGI (MDA-MB-231 breast) [µM]	GI50 (T-47D breast) [µM]	TGI (T-47D breast) [µM]
CC(=O)[CH-]C(=O)c1ccccc1.CC(=O)[CH-]C(=O)c1ccccc1.CCN(CC)CC[O-].CCN(CC)CC[O-].Cl.[Ti+4]	43.4	> 100	22.2	68.3	17.6	52.2	56.5	> 100	45.9	> 100									
CCCCN(CCCC)C(=O)C(=O)CC(=O)c1ccc(Br)cc1		> 100		> 100		> 100		> 100		> 100	> 100								
Nc1cccc2c1C(=O)N(C1CCC(=O)NC1=O)C2=O (stereo unspecified)	> 100	> 100					> 100	> 100	> 100	> 100		> 100	> 100	> 100	> 100	> 100	> 100	> 100	> 100
CCOC(=O)c1cccc(=O)c(C(=O)OCC)c1				> 100		> 100		> 100		> 100	> 100								
O=C(Cc1ccccc1)NN1C(=O)C(Cl)C1c1cccc(O)c1 (stereo unspecified)		27.9		22.8		35.8		40		16.7	73.6								
CCCCCCCCCCCCc1ccc(C(=O)/C=C/C(=O)O)cc1	1.45	2.81					2.06	4.46	1.43	3.67		7.61	42.1	1.62	3.3	1.85	4.5	1.67	4.11
Cc1cc2c(C)c3cc(C)c(N)cc3nc2cc1N	0.893	4.03					1.1	3.92	0.38	3.57		1.64	7.95	0.342	4.38	1.09	3.48	0.754	5.28
CC(Cc1ccc(Cl)cc1Cl)NO (stereo unspecified)		> 100						> 100		> 100			> 100		> 100		> 100		> 100
COc1ccc(N(C)c2nc(C)nc3ccccc23)cc1	< 0.01	> 51.4					< 0.01	> 100	< 0.01	> 100		< 0.01	> 100	< 0.01	> 100	< 0.01	> 100	14.2	> 100
O=C1c2ccccc2-c2c1c1ccccc1c(=O)n2CCO		> 100						> 100		> 100			> 100		> 100		> 100		> 100
COc1cc(C(=O)O)c([N+](=O)[O-])c(OC)c1OC		> 100						> 100		> 100			> 100		> 100		> 100		> 100
S=c1[nH]nc(COc2ccc(Cl)cc2)o1				> 100		> 100		> 100		29.8	> 100								
NC(N)=NC(CC(=O)O)c1ccccc1 (stereo unspecified)		> 100						> 100		> 100			> 100		> 100		> 100		> 100
COc1cccc(NC(=O)c2sc3nc4c(cc3c2N)CCCC4)c1	0.729	> 100					0.998	39.9	0.45	> 100		0.75	54.6	0.314	> 100	3.88	26.4	0.529	> 100
C1=CN2C[n+]3cccc(OCc4ccccc4)c3N=C2C(OCc2ccccc2)=C1		86						82.9		> 100			21.5		> 100		56.1		> 100
Cn1nc(-c2ccccc2NC(=O)C(F)(F)F)c(=O)n(C)c1=S		> 100		> 100		48.7		62.3		> 100									
CC1=C(C(=O)Nc2ccccc2)C(c2ccc3c(c2)OCO3)C(C(=O)Nc2ccccc2)=C(C)N1		76.5		> 100		> 100		81.4		12.3									
N#Cc1ccccc1NC(=O)C(=O)C(C(=O)c1ccccc1-c1ccccc1)C1OC(=O)c2ccccc21 (stereo unspecified)		32.2				35.3				75.5	59.9								
